Experimental data taken from patent US20230277533A1, “THERAPEUTIC COMBINATIONS COMPRISING UBIQUITIN-SPECIFIC-PROCESSING PROTEASE 1 (USP1) INHIBITORS AND POLY (ADP-RIBOSE) POLYMERASE (PARP) INHIBITORS” (KSQ Therapeutics, Inc., priority 2020, published 2023).
Where two headings read alike, the source gives them in different places.

Columns and labels:
Test in all cases: Colony formation (CFU) assay
Assay type in all cases: cell-based
[1] = system: UMUC3; conditions: Homo sapiens; UMUC3, bladder
Description: (§1) In vitro experiments were conducted using the colony formation unit (CFU) assay on various cell lines. The CFU assay involved first establishing what cell plating density enabled the development of clearly interspersed colonies on a six-well plate when left to grow for around 14 days. […] Media was changed on day 8 containing appropriate concentrations of DMSO, USP1 inhibitor, Niraparib, or Olaparib. At or around day 14 when clearly interspersed colonies were visible in the DMSO treated wells, the cells were fixed and stained using 0.1% crystal violet in 10% ethanol for 20 minutes at room temperature. The plates were imaged then the amount of crystal violet stain in each well was quantified by extracting the crystal violet into 10% acetic acid and the absorbance measured at 565 nm.
(§2) IC50 values were calculated by fitting a two-parameter hill equation to the dose-response measurements. Non-linear-least-squares was used to find parameter values that minimize the squared error of the model fit to measured dose response. Non-linear-least-squares estimation was performed using the minpack.lm R package, version 1.2-1. Bliss synergy scores were calculated using the synergyfinder R package version 1.6.1.

[2] = system: SNU213; conditions: SNU213, pancreas
Description: as §1, §2

[3] = system: OE19; conditions: Homo sapiens; OE19, esophagus
Description: as §1, §2

[4] = system: HMC18; conditions: HMC18, breast
Description: as §1, §2

[5] = system: T226; conditions: T226, breast
Description: as §1, §2

[6] = system: 143B; conditions: Homo sapiens, bone
Description: as §1, §2

[7] = system: SNU81; conditions: SNU81, colon
Description: as §1, §2

[8] = system: OVSAHO; conditions: Homo sapiens, ovary
Description: as §1, §2

[9] = system: 647V; conditions: Homo sapiens, bladder
Description: as §1, §2

[10] = system: ECGI10; conditions: ECGI10, esophagus
Description: as §1, §2

[11] = system: HS934T; conditions: melanoma
Description: as §1, §2

[12] = system: HS578T; conditions: Homo sapiens, Hs-578T, breast
Description: as §1, §2

[13] = system: HCC95; conditions: Homo sapiens; HCC95, lung
Description: as §1, §2

[14] = system: RT11284; conditions: Homo sapiens, RT112/84; RT11284, bladder
Description: as §1, §2

[15] = system: NCIH1373; conditions: Homo sapiens, NCI-H1373; NCIH1373, lung
Description: as §1, §2

[16] = system: CAOV3; conditions: Homo sapiens, Caov-3; CAOV3, ovary
Description: as §1, §2

[17] = system: KLE; conditions: Homo sapiens, uterus
Description: as §1, §2

[18] = system: KYSE410; conditions: Homo sapiens, KYSE-410; KYSE410, esophagus
Description: as §1, §2

[19] = system: HCC202; conditions: HCC202, breast
Description: as §1, §2

[20] = system: QGP1; conditions: QGP-1; QGP1, pancreas
Description: as §1, §2

[21] = system: BICR78; conditions: BICR78, head and neck
Description: as §1, §2

[22] = system: RERFLCAI; conditions: lung
Description: as §1, §2

[23] = system: HSC2; conditions: Homo sapiens, HSC-2; HSC2, head and neck
Description: as §1, §2

[24] = system: SNU668; conditions: SNU668, stomach
Description: as §1, §2

[25] = system: TE14; conditions: TE14, esophagus
Description: as §1, §2

[26] = system: COV434; conditions: COV434, ovary
Description: as §1, §2

[27] = system: COV504; conditions: COV504, ovary
Description: as §1, §2

[28] = system: OVK18; conditions: OVK18, ovary
Description: as §1, §2

[29] = system: AN3CA; conditions: Homo sapiens, AN3-CA, uterus
Description: as §1, §2

[30] = system: HS821T; conditions: bone
Description: as §1, §2

[31] = system: SKES1; conditions: Homo sapiens, SK-ES1; SKES1, bone
Description: as §1, §2

[32] = system: KP3
Description: as §1, §2

[33] = system: RKO; conditions: Homo sapiens, colon
Description: as §1, §2

[34] = system: CAPAN2; conditions: Homo sapiens, Capan-2; CAPAN2, pancreas
Description: as §1, §2

[35] = system: DOTC24510; conditions: Homo sapiens, DoTc2-4510; DOTC24510, cervix
Description: as §1, §2

[36] = system: HEC151; conditions: HEC151, endometrial
Description: as §1, §2

[37] = system: 8305C; conditions: Homo sapiens, thyroid
Description: as §1, §2

[38] = system: SNUC4; conditions: Homo sapiens, SNU-C4; SNUC4, colon
Description: as §1, §2

[39] = system: T174; conditions: T174, breast
Description: as §1, §2

SMILES | IC50 [1] | IC50 [2] | IC50 [3] | IC50 [4] | IC50 [5] | IC50 [6] | IC50 [7] | IC50 [8] | IC50 [9] | IC50 [10] | IC50 [11] | IC50 [12] | IC50 [13] | IC50 [14] | IC50 [15] | IC50 [16] | IC50 [17] | IC50 [18] | IC50 [19] | IC50 [20] | also measured
COc1ncnc(C2CC2)c1-c1ncc2cnn(Cc3ccc(-c4nc(C(F)(F)F)cn4C)cc3)c2n1 [Formula II, 6-(4-cyclopropyl-6-methoxypyrimidin-5-yl)-1-(4-(1-methyl-4-(trifluoromethyl)-1H-imidazol-2-yl)benzyl)-1H-pyrazolo[3,4-d]pyrimidine] | > 300 nM | > 300 nM | > 300 nM | > 300 nM | > 300 nM | > 300 nM | 10.2 nM | > 300 nM | 33.9 nM | > 300 nM | > 300 nM | > 300 nM | > 300 nM | > 300 nM | > 300 nM | 27.8 nM | > 300 nM | > 300 nM | > 300 nM | > 300 nM | IC50 [21]: > 300 nM; IC50 [22]: > 300 nM; IC50 [23]: > 300 nM; IC50 [24]: > 300 nM; IC50 [25]: > 300 nM; IC50 [26]: > 300 nM; IC50 [27]: 6.63 nM; IC50 [28]: > 300 nM; IC50 [29]: > 300 nM; IC50 [30]: > 300 nM; IC50 [31]: > 300 nM; IC50 [32]: > 300 nM; IC50 [33]: > 300 nM; IC50 [34]: > 300 nM; IC50 [35]: > 300 nM; IC50 [36]: > 300 nM; IC50 [37]: > 300 nM; IC50 [38]: > 300 nM; IC50 [39]: > 300 nM
NC(=O)c1cccc2cn(-c3ccc([C@@H]4CCCNC4)cc3)nc12 [Niraparib, niraparib, reference compound] | > 300 nM | > 300 nM | > 300 nM | > 300 nM | > 300 nM | > 300 nM | 18.6 nM | > 300 nM | 96.7 nM | > 300 nM | > 300 nM | > 300 nM | > 300 nM | > 300 nM | > 300 nM | 241 nM | > 300 nM | > 300 nM | 103 nM | > 300 nM | IC50 [21]: > 300 nM; IC50 [22]: > 300 nM; IC50 [23]: > 300 nM; IC50 [24]: > 300 nM; IC50 [25]: > 300 nM; IC50 [26]: 106 nM; IC50 [27]: 4.17 nM; IC50 [28]: > 300 nM; IC50 [29]: 101 nM; IC50 [30]: > 300 nM; IC50 [31]: 23.6 nM; IC50 ([32]; KP3, pancreas, read-out: IC50): > 300 nM; IC50 [33]: > 300 nM; IC50 [34]: > 300 nM; IC50 [35]: 30.4 nM; IC50 [36]: > 300 nM; IC50 [37]: > 300 nM; IC50 [38]: > 300 nM; IC50 [39]: > 300 nM
